Assay results published in PubChem BioAssay (NCI).
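Tested at 5 concentrations; 48 h exposure; 96-well plates; endpoints linearly interpolated, else capped at highest concentration. GI50 marks 50% less growth. TGI is the concentration that stops growth completely.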

Tests used:
Experiment in all cases: NCI anticancer screen, dose series, 48 h
[1] = tested on: CAKI-1 renal
[2] = tested on: IGROV1 ovarian
[3] = tested on: LOX IMVI melanoma
[4] = tested on: A549 NSCLC
[5] = tested on: DU-145 prostate
[6] = tested on: T-47D breast
[7] = tested on: KM12 colon
[8] = tested on: U251 CNS
[9] = tested on: BT-549 breast
[10] = tested on: EKVX NSCLC
[11] = tested on: UO-31 renal
[12] = tested on: HL-60(TB) leukemia
[13] = tested on: TK-10 renal
[14] = tested on: MALME-3M melanoma
[15] = tested on: PC-3 prostate
[16] = tested on: MDA-MB-435
[17] = tested on: NCI-H522 lung
[18] = tested on: HOP-62 NSCLC
[19] = tested on: OVCAR-8 ovarian
[20] = tested on: OVCAR-3 ovarian
[21] = tested on: SK-MEL-5 melanoma
[22] = tested on: NCI-H23 lung
[23] = tested on: SK-MEL-2 melanoma
[24] = tested on: RXF 393 renal
[25] = tested on: UACC-257 melanoma
[26] = tested on: NCI/ADR-RES ovarian
[27] = tested on: HT29 colon
[28] = tested on: HS 578T breast
[29] = tested on: OVCAR-5 ovarian
[30] = tested on: UACC-62 melanoma
[31] = tested on: M14 melanoma
[32] = tested on: HCT-15 colon
[33] = tested on: SK-MEL-28 melanoma
[34] = tested on: SW-620 colon
[35] = tested on: 786-0 renal
[36] = tested on: NCI-H226 lung
[37] = tested on: NCI-H460 lung
[38] = tested on: SF-539 CNS
[39] = tested on: MCF7 breast
[40] = tested on: A498 renal
[41] = tested on: SF-268 CNS
[42] = tested on: SN12C renal
[43] = tested on: CCRF-CEM leukemia
[44] = tested on: K-562 leukemia
[45] = tested on: MDA-MB-231 breast
[46] = tested on: RPMI-8226 leukemia
[47] = tested on: HOP-92 NSCLC
[48] = tested on: COLO 205 colon
[49] = tested on: ACHN renal
[50] = tested on: SR leukemia
[51] = tested on: SNB-19 CNS
[52] = tested on: SK-OV-3 ovarian
[53] = tested on: HCC-2998 colon
[54] = tested on: HCT-116 colon
[55] = tested on: OVCAR-4 ovarian
[56] = tested on: SF-295 CNS
[57] = tested on: MOLT-4 leukemia

SMILES: CCCCCN=Cc1c(O)c(O)c(C(C)C)c2cc(C)c(-c3c(C)cc4c(C(C)C)c(O)c(O)c(C=NCCCCC)c4c3O)c(O)c12
- TGI [1]: 97.6 µM
- TGI [2]: 87.4 µM
- TGI [3]: 16.7 µM
- TGI [4]: > 100 µM
- TGI [5]: > 100 µM
- TGI [6]: 25.8 µM
- TGI [7]: 19.8 µM
- TGI [8]: 18 µM
- TGI [9]: 38.7 µM
- TGI [10]: > 100 µM
- TGI [11]: 41.1 µM
- TGI [12]: 22.2 µM
- TGI [13]: > 100 µM
- TGI [14]: 33.1 µM
- TGI [15]: 41.1 µM
- TGI [16]: 17.8 µM
- TGI [17]: 25.2 µM
- TGI [18]: > 100 µM
- TGI [19]: > 100 µM
- TGI [20]: 65 µM
- TGI [21]: 28.1 µM
- TGI [22]: > 100 µM
- TGI [23]: > 100 µM
- TGI [24]: 46.8 µM
- TGI [25]: 46.2 µM
- TGI [26]: > 100 µM
- TGI [27]: > 100 µM
- TGI [28]: > 100 µM
- TGI [29]: > 100 µM
- TGI [30]: 33 µM
- TGI [31]: > 100 µM
- TGI [32]: 78 µM
- TGI [33]: 26.5 µM
- TGI [34]: > 100 µM
- TGI [35]: > 100 µM
- TGI [36]: 88.4 µM
- TGI [37]: > 100 µM
- TGI [38]: > 100 µM
- TGI [39]: 27.2 µM
- TGI [40]: > 100 µM
- TGI [41]: 47.3 µM
- TGI [42]: > 100 µM
- TGI [43]: > 100 µM
- TGI [44]: 70 µM
- TGI [45]: 65.1 µM
- TGI [46]: > 100 µM
- TGI [47]: 14.6 µM
- TGI [48]: 9.15 µM
- TGI [49]: 31.3 µM
- TGI [50]: > 100 µM
- TGI [51]: 18.8 µM
- TGI [52]: 39.7 µM
- TGI [53]: 35.9 µM
- TGI [54]: > 100 µM

SMILES: C/C1=C\CC[C@@]2(C)O[C@@H]2[C@H]2OC(=O)[C@@H](CN(C)C)[C@@H]2CC1
- GI50 [1]: 13.2 µM
- TGI [1]: 31.3 µM
- GI50 [2]: 17.9 µM
- TGI [2]: 34.2 µM
- GI50 [3]: 10.2 µM
- TGI [3]: 29.9 µM
- GI50 [4]: 19.6 µM
- TGI [4]: 63.3 µM
- GI50 [5]: 4.75 µM
- TGI [5]: 28.1 µM
- GI50 [6]: 39.4 µM
- TGI [6]: > 100 µM
- GI50 [7]: 11.8 µM
- TGI [7]: 29.1 µM
- GI50 [8]: 14.9 µM
- TGI [8]: 34.4 µM
- GI50 [9]: 4.8 µM
- TGI [9]: 26.9 µM
- GI50 [10]: 21.1 µM
- TGI [10]: 41.8 µM
- GI50 [11]: 2.31 µM
- TGI [11]: 5.95 µM
- GI50 [12]: 1.46 µM
- TGI [12]: 7.24 µM
- GI50 [13]: 3.09 µM
- TGI [13]: 7.7 µM
- GI50 [15]: 14.1 µM
- TGI [15]: 33.7 µM
- GI50 [16]: 7.68 µM
- TGI [16]: 25.3 µM
- GI50 [17]: 2.65 µM
- TGI [17]: 7.06 µM
- GI50 [18]: 20.9 µM
- TGI [18]: 40.4 µM
- GI50 [19]: 23.2 µM
- TGI [19]: 52.8 µM
- GI50 [20]: 12.1 µM
- TGI [20]: 32.4 µM
- GI50 [21]: 8.14 µM
- TGI [21]: 29.7 µM
- GI50 [22]: 19.2 µM
- TGI [22]: 40 µM
- GI50 [23]: 14.2 µM
- TGI [23]: 34.8 µM
- GI50 [24]: 16.1 µM
- TGI [24]: 50.5 µM
- GI50 [25]: 12.8 µM
- TGI [25]: 28.4 µM
- GI50 [26]: 14.7 µM
- TGI [26]: 59.9 µM
- GI50 [27]: 19.9 µM
- TGI [27]: 61.4 µM
- GI50 [28]: 22.7 µM
- TGI [28]: > 100 µM
- GI50 [55]: 16.6 µM
- TGI [55]: 40 µM
- GI50 [29]: 18.6 µM
- TGI [29]: 37.1 µM
- GI50 [56]: 32.8 µM
- TGI [56]: > 100 µM
- GI50 [30]: 17.7 µM
- TGI [30]: 34.9 µM
- GI50 [31]: 16.3 µM
- TGI [31]: 35.2 µM
- GI50 [32]: 15.9 µM
- TGI [32]: 34.3 µM
- GI50 [33]: 21.9 µM
- TGI [33]: 51.6 µM
- GI50 [34]: 3.76 µM
- TGI [34]: > 100 µM
- GI50 [35]: 7.61 µM
- TGI [35]: 24 µM
- GI50 [36]: 20.4 µM
- TGI [36]: 40.6 µM
- GI50 [37]: 32.8 µM
- TGI [37]: > 100 µM
- GI50 [38]: 2.45 µM
- TGI [38]: 5.62 µM
- GI50 [39]: 4.96 µM
- TGI [39]: > 100 µM
- GI50 [40]: 25.7 µM
- TGI [40]: 44.9 µM
- GI50 [41]: 38.7 µM
- TGI [41]: > 100 µM
- GI50 [57]: 2.89 µM
- TGI [57]: 9.82 µM
- GI50 [42]: 12.8 µM
- TGI [42]: 32.4 µM
- GI50 [43]: 2.11 µM
- TGI [43]: 5.61 µM
- GI50 [44]: 2.54 µM
- TGI [44]: 59.1 µM
- GI50 [45]: 14.2 µM
- TGI [45]: 34.6 µM
- GI50 [46]: 2.39 µM
- TGI [46]: 23.1 µM
- GI50 [47]: 9.87 µM
- TGI [47]: 29.7 µM
- GI50 [48]: 33.8 µM
- TGI [48]: 98.4 µM
- GI50 [49]: 15.6 µM
- TGI [49]: 31.6 µM
- GI50 [51]: 27.9 µM
- TGI [51]: 63 µM
- GI50 [52]: 27.6 µM
- TGI [52]: 54 µM
- GI50 [53]: 18 µM
- TGI [53]: 35.7 µM
- GI50 [54]: 4.97 µM
- TGI [54]: 20.4 µM
